Assay results as given in ChEMBL document CHEMBL5257097, “An Isomer of Galidesivir That Potently Inhibits Influenza Viruses and Members of the Bunyavirales Order” (ACS Med Chem Lett, 2023).

What was measured:
[1] = tested on: dengue virus type 2; test: Antiviral activity against DENV-2 infected in African green monkey Vero cells assessed as reduction in virus-induced cytopathic effect measured after 15 to 30 mins by visual analysis; assay type: functional, organism-based
[2] = tested on: dengue virus type 2; test: Antiviral activity against DENV-2 infected in African green monkey Vero cells assessed as reduction in virus-induced cytopathic effect measured after 15 to 30 mins by neutral red based analysis; assay type: functional, organism-based
[3] = Cytotoxicity against African green monkey Vero cells infected with DENV-2 assessed as reduction in cell viability by visual assay; assay type: toxicity, cell-based; details: chlorocebus sabaeus
[4] = Cytotoxicity against African green monkey Vero cells infected with DENV-2 assessed as reduction in cell viability by neutral red dye based assay; assay type: toxicity; details: chlorocebus sabaeus
[5] = Selectivity index, ratio of CC50 for cytotoxicity against African green monkey Vero cells infected with DENV-2 assessed as reduction in cell viability by visual analysis to EC50 for antiviral activity against DENV-2 infected in human Huh-7 cells assessed as reduction in virus-induced cytopathic effect by visual analysis; assay type: toxicity, cell-based; details: read-out: Ratio CC50/EC50
[6] = Selectivity index, ratio of CC50 for cytotoxicity against African green monkey Vero cells infected with DENV-2 assessed as reduction in cell viability by neutral red analysis to EC50 for antiviral activity against DENV-2 infected in human Huh-7 cells assessed as reduction in virus-induced cytopathic effect by neutral red analysis; assay type: toxicity, cell-based; details: read-out: Ratio CC50/EC50
[7] = tested on: Yellow fever virus; test: Antiviral activity against Yellow fever virus infected in human Huh-7 cells assessed as reduction in virus-induced cytopathic effect measured after 15 to 30 mins by visual analysis; assay type: functional, organism-based; details: huh-7
[8] = tested on: Zika virus; test: Antiviral activity against Zika virus infected in African green monkey Vero 76 cells assessed as reduction in virus-induced cytopathic effect measured after 15 to 30 mins by visual analysis; assay type: functional, organism-based
[9] = tested on: Zika virus; test: Antiviral activity against Zika virus infected in African green monkey Vero 76 cells assessed as reduction in virus-induced cytopathic effect measured after 15 to 30 mins by neutral red based spectrophotometric analysis; assay type: functional, organism-based
[10] = Cytotoxicity against African green monkey Vero 76 cells infected with Zika virus assessed as reduction in cell viability by visual analysis; assay type: toxicity, cell-based; details: chlorocebus sabaeus
[11] = Cytotoxicity against African green monkey Vero 76 cells infected with Zika virus assessed as reduction in cell viability by neutral red dye based assay; assay type: toxicity; details: chlorocebus sabaeus
[12] = Selectivity index, ratio of CC50 for cytotoxicity against African green monkey Vero 76 infected with Zika virus assessed as reduction in cell viability by visual analysis to EC50 for antiviral activity against Zika virus infected in African green monkey Vero 76 cells assessed as reduction in virus-induced cytopathic effect by visual analysis; assay type: toxicity, cell-based; details: Vero 76 cells infected with Zika virus, read-out: Ratio CC50/EC50
[13] = Selectivity index, ratio of CC50 for cytotoxicity against African green monkey Vero 76 cells infected with Zika virus assessed as reduction in cell viability by neutral red dye based analysis to EC50 for antiviral activity against Zika virus infected in African green monkey Vero 76 cells assessed as reduction in virus-induced cytopathic effect by neutral red based spectrophotometric analysis; assay type: toxicity; details: read-out: Ratio CC50/EC50
[14] = tested on: Influenza A virus; test: Antiviral activity against Influenza A virus H1N1 infected in dog MDCK cells assessed as reduction in virus-induced cytopathic effect measured after 15 to 30 mins by visual analysis; assay type: functional, organism-based
[15] = tested on: Influenza A virus; test: Antiviral activity against Influenza A virus H1N1 infected in dog MDCK cells assessed as reduction in virus-induced cytopathic effect measured after 15 to 30 mins by neutral red based analysis; assay type: functional, organism-based
[16] = Cytotoxicity against dog MDCK cells infected with Influenza A virus H1N1 assessed as reduction in cell viability by visual analysis; assay type: toxicity, cell-based, Canis lupus familiaris
[17] = Cytotoxicity against dog MDCK cells infected with Influenza A virus H1N1 assessed as reduction in cell viability by neutral red dye based assay; assay type: toxicity, Canis lupus familiaris
[18] = tested on: Middle East respiratory syndrome-related coronavirus; test: Antiviral activity against MERS-CoV infected in vervet monkey MA-104 cells assessed as reduction in virus-induced cytopathic effect measured after 15 to 30 mins by visual analysis; assay type: functional, organism-based; details: MA104
[19] = tested on: Middle East respiratory syndrome-related coronavirus; test: Antiviral activity against MERS-CoV infected in vervet monkey MA-104 cells assessed as reduction in virus-induced cytopathic effect measured after 15 to 30 mins by neutral red dye based assay; assay type: functional, organism-based; details: MA104
[20] = Cytotoxicity against vervet monkey MA-104 cells infected with MERS-CoV assessed as reduction in cell viability by visual assay; assay type: toxicity, cell-based; details: cercopithecus pygerythrus
[21] = Cytotoxicity against vervet monkey MA-104 cells infected with MERS-CoV assessed as reduction in cell viability by neutral red dye based assay; assay type: toxicity; details: cercopithecus pygerythrus
[22] = Selectivity index, ratio of CC50 for cytotoxicity against African green monkey Vero 76 cells infected with MERS-CoV assessed as reduction in cell viability by visual analysis to EC50 for antiviral activity against MERS-CoV infected in African green monkey Vero 76 cells assessed as reduction in virus-induced cytopathic effect by visual analysis; assay type: toxicity, cell-based; details: read-out: Ratio CC50/EC50
[23] = Selectivity index, ratio of CC50 for cytotoxicity against African green monkey Vero 76 cells infected with MERS-CoV assessed as reduction in cell viability by neutral red dye based analysis to EC50 for antiviral activity against MERS-CoV infected in African green monkey Vero 76 cells assessed as reduction in virus-induced cytopathic effect by neutral red dye based analysis; assay type: toxicity; details: read-out: Ratio CC50/EC50
[24] = tested on: Rift Valley fever virus; test: Antiviral activity against Rift valley fever virus infected in African green monkey Vero 76 cells assessed as reduction in virus-induced cytopathic effect measured after 15 to 30 mins by visual analysis; assay type: functional, organism-based
[25] = Cytotoxicity against African green monkey Vero 76 cells infected with Rift valley fever virus assessed as reduction in cell viability by visual analysis; assay type: toxicity, cell-based; details: chlorocebus sabaeus
[26] = tested on: Rift Valley fever virus; test: Antiviral activity against Rift valley fever virus infected in African green monkey Vero 76 cells assessed as reduction in virus-induced cytopathic effect measured after 15 to 30 mins by neutral red dye based analysis; assay type: functional, organism-based
[27] = Cytotoxicity against African green monkey Vero 76 cells infected with Rift valley fever virus assessed as reduction in cell viability by neutral red dye based analysis; assay type: toxicity; details: chlorocebus sabaeus
[28] = Selectivity index, ratio of CC50 for cytotoxicity against African green monkey Vero 76 cells infected with Rift valley fever virus assessed as reduction in cell viability by visual analysis to EC50 for antiviral activity against Rift valley fever virus infected in African green monkey Vero 76 cells assessed as reduction in virus-induced cytopathic effect by visual analysis; assay type: toxicity, cell-based; details: read-out: Ratio CC50/EC50
[29] = Selectivity index, ratio of CC50 for cytotoxicity against African green monkey Vero 76 cells infected with Rift valley fever virus assessed as reduction in cell viability by neutral red dye based analysis to EC50 for antiviral activity against Rift valley fever virus infected in African green monkey Vero 76 cells assessed as reduction in virus-induced cytopathic effect by neutral red dye based analysis; assay type: toxicity; details: read-out: Ratio CC50/EC50
[30] = tested on: dengue virus type 2; test: Antiviral activity against DENV-2 infected in human Huh-7 cells assessed as reduction in virus-induced cytopathic effect measured after 15 to 30 mins by neutral red based analysis; assay type: functional, organism-based
[31] = tested on: Huh-7; test: Cytotoxicity against human Huh-7 cells infected with DENV-2 assessed as reduction in cell viability by visual analysis; assay type: functional
[32] = tested on: Yellow fever virus; test: Antiviral activity against Yellow fever virus infected in human Huh-7 cells assessed as reduction in virus-induced cytopathic effect measured after 15 to 30 mins by neutral red based analysis; assay type: functional, organism-based
[33] = tested on: Huh-7; test: Cytotoxicity against human Huh-7 cells infected with Yellow fever virus assessed as reduction in cell viability by visual assay; assay type: functional
[34] = tested on: Middle East respiratory syndrome-related coronavirus; test: Antiviral activity against MERS-CoV infected in African green monkey Vero 76 cells assessed as reduction in virus-induced cytopathic effect measured after 15 to 30 mins by neutral red dye based analysis; assay type: functional, organism-based
[35] = Cytotoxicity against African green monkey Vero 76 cells infected with MERS-CoV assessed as reduction in cell viability by neutral red dye based analysis; assay type: toxicity; details: chlorocebus sabaeus
[36] = Selectivity index, ratio of CC50 for cytotoxicity against human Huh-7 cells infected with Yellow fever virus assessed as reduction in cell viability by neutral red dye based assay to EC50 for antiviral activity against Yellow fever virus infected in human Huh-7 cells assessed as reduction in virus-induced cytopathic effect by neutral red based analysis; assay type: toxicity; details: read-out: Ratio CC50/EC50
[37] = Selectivity index, ratio of CC50 for cytotoxicity against dog MDCK cells infected with Influenza A virus H1N1 assessed as reduction in cell viability by neutral red dye based analysis to EC50 for antiviral activity against Influenza A virus H1N1 infected in dog MDCK cells assessed as reduction in virus-induced cytopathic effect by neutral red dye based analysis; assay type: toxicity; details: read-out: Ratio CC50/EC50
[38] = tested on: Influenza A virus; test: Antiviral activity against Influenza A virus H3N2 infected in dog MDCK cells; assay type: functional, organism-based
[39] = tested on: Influenza A virus; test: Antiviral activity against Influenza A virus H1N1 infected in dog MDCK cells; assay type: functional, organism-based
[40] = tested on: Influenza A virus; test: Antiviral activity against Influenza A virus H7N9 infected in dog MDCK cells; assay type: functional, organism-based
[41] = tested on: Influenza B virus; test: Antiviral activity against Influenza B virus infected in dog MDCK cells
[42] = Cytotoxicity against dog MDCK cells infected with Influenza A virus H1N1; assay type: toxicity, cell-based, Canis lupus familiaris
[43] = Cytotoxicity against dog MDCK cells infected with Influenza A virus H3N2; assay type: toxicity, cell-based, Canis lupus familiaris
[44] = Cytotoxicity against dog MDCK cells infected with Influenza B virus; assay type: toxicity, cell-based, Canis lupus familiaris

Nc1ncnc2c([C@@H]3N[C@H](CO)[C@@H](O)[C@H]3O)n[nH]c12
EC50 [1]: 3.2 µM | EC50 [2]: 2.8 µM | CC50 [3]: > 100 µM | CC50 [4]: 2.8 µM | selectivity ratio [5]: 3.1 | selectivity ratio [6]: 3.5 | EC50 [7]: Not Active | EC50 [8]: 32 µM | EC50 [9]: 12 µM | CC50 [10]: 100 µM | CC50 [11]: 13 µM | selectivity ratio [12]: 3.1 | selectivity ratio [13]: 1.1 | EC50 [14]: > 100 µM | EC50 [15]: > 100 µM | CC50 [16]: > 100 µM | CC50 [17]: > 100 µM | EC50 [18]: 8.6 µM | EC50 [19]: 9.9 µM | CC50 [20]: 42 µM | CC50 [21]: 45 µM | selectivity ratio [22]: 4.9 | selectivity ratio [23]: 4.5 | EC50 [24]: 4.2 µM | CC50 [25]: 8.3 µM | EC50 [26]: 4.2 µM | CC50 [27]: > 100 µM | selectivity ratio [28]: 8.3 | selectivity ratio [29]: 7.6

CC(C)OC(=O)[C@H](C)N[P@](=O)(OC[C@H]1N[C@@H](c2c[nH]c3c(N)ncnc23)[C@H](O)[C@@H]1O)Oc1ccccc1
EC50 [30]: > 100 µM | CC50 [31]: > 100 µM | EC50 [32]: > 100 µM | CC50 [33]: > 100 µM | EC50 [15]: > 100 µM | CC50 [17]: > 100 µM | EC50 [34]: > 100 µM | CC50 [35]: > 100 µM | EC50 [26]: > 100 µM | CC50 [27]: > 100 µM

CC(C)OC(=O)[C@H](C)N[P@](=O)(OC[C@H]1N[C@@H](c2ccc3c(N)ncnn23)[C@H](O)[C@@H]1O)Oc1ccccc1
EC50 [30]: 1.1 µM | CC50 [31]: 9.9 µM | EC50 [32]: 3.6 µM | CC50 [33]: 9.9 µM | selectivity ratio [36]: 9 | EC50 [15]: 4.7 µM | CC50 [17]: > 32 µM | selectivity ratio [37]: > 6.8 | EC50 [34]: 13 µM | CC50 [35]: 68 µM | selectivity ratio [23]: 5.2 | EC50 [26]: 0.99 µM | CC50 [27]: > 32 µM | selectivity ratio [29]: > 32

NC(=O)c1ncn([C@@H]2O[C@H](CO)[C@@H](O)[C@H]2O)n1 [RIBAVIRIN]
EC50 [38]: 1.9 µM | EC50 [39]: 1.9 µM | EC50 [40]: 10 µM | EC50 [41]: 1.9 µM | CC50 [42]: > 1000 µM | CC50 [43]: > 1000 µM | CC50 [44]: > 1000 µM
